Our source for the IC50 values is patent US20250382305A1 (PTC THERAPEUTICS, INC., priority 2022, published 2025).

For one assay, the system named is ATXN3 pre-mRNA. Description: RT-qPCR Assay to Quantify Exon 4 Skipping in ATXN3 pre-mRNA in Cells. The format is cell-based. Particulars: percent exon 4 skipping in ATXN3 pre-mRNA, RT-qPCR of cell lysates; average IC50. The method, boiled down:
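Cells plated at 10,000/well onto a 7-point, 3.16-fold DMSO dilution series (duplicates), incubated 24 h at 37 °C, then lysed. Exon 4 skipping measured by one-step RT-qPCR (48 °C RT, 40 cycles); IC50 interpolated from dose-response fit of percent skipping.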
For orientation: Real-time PCR tracks product formation cycle by cycle.

In assay [1] the test system is Total ATXN3 (tATXN3) protein. The assay is described as follows: Endogenous Total ATXN3 (tATXN3) Protein Assay (MSD immunoassay of cell lysates). The format is cell-based. Particulars: average IC50, total ATXN3 protein in cell lysate after 48 h with compound (Table 1). The method, boiled down:
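Cells in DMEM/10% FBS were plated at 10,000 per well onto 7-point, 3.16-fold compound dilutions in duplicate for 48 h at 37° C, then lysed. Total ATXN3 in lysates was measured by MSD sandwich immunoassay: mouse anti-ATXN3 capture, rabbit anti-ATXN3 detection, SULFO-TAG anti-rabbit. Average IC50 was reported in star bins.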

As usually defined, the IC50 is the concentration at which inhibition is half-maximal. In the case of `N[C@@H]1CCCO[C@H]1c1sc2c(NCc3ccccc3)cc(Cl)nc2c1I` [Compound 132, 2-((2R,3R)-3-aminotetrahydro-2H-pyran-2-yl)-N-benzyl-5-chloro-3-iodothieno[3,2-b]pyridin-7-amine], the IC50 in the assay with ATXN3 pre-mRNA was over 1000 nM; in assay [1] it was 300 to 1000 nM.
As for `C/C=C/CNc1cc(Cl)nc2c(Cl)c([C@H]3CC=CC[C@@H]3N)sc12` [Compound 302, 2-((1S,6S)-6-aminocyclohex-3-en-1-yl)-N-((E)-but-2-en-1-yl)-3,5-dichlorothieno[3,2-b]pyridin-7-amine], the IC50 (in the assay with ATXN3 pre-mRNA; in assay [1]) was 30 to 300 nM each time.
As for “2-((2R,3S)-3-aminotetrahydrofuran-2-yl)-3-bromo-5-chloro-N-(thiophen-2-ylmethyl)thieno[3,2-b]pyridin-7-amine and 2-((2S,3R)-3-aminotetrahydrofuran-2-yl)-3-bromo-5-chloro-N-(thiophen-2-ylmethyl)thieno[3,2-b]pyridin-7-amine [Compound 150]”, the concentration for half-maximal inhibition (IC50) (with ATXN3 pre-mRNA; in assay [1]) was 30 to 300 nM throughout.
With `N[C@H]1CC=C[C@@H](O)[C@@H]1c1sc2c(NCc3cccs3)cc(Cl)nc2c1Cl` [Compound 377, (1R,5S,6R)-5-amino-6-(3,5-dichloro-7-((thiophen-2-ylmethyl)amino)thieno[3,2-b]pyridin-2-yl)cyclohex-2-en-1-ol], the IC50 (in the assay on ATXN3 pre-mRNA; in assay [1]) was 30 to 300 nM each time.
On to `C#Cc1c([C@@H]2CCCC[C@H]2N)sc2c(NCc3ccccc3F)cc(Cl)nc12` [Compound 430, 2-((1R,2R)-2-aminocyclohexyl)-5-chloro-3-ethynyl-N-(2-fluorobenzyl)thieno[3,2-b]pyridin-7-amine], for which the IC50 (in the assay on ATXN3 pre-mRNA; in assay [1]) was 30 to 300 nM in each case.
With `N[C@H]1CC=CC[C@@H]1c1sc2c(NCc3ccccc3F)cc(Cl)nc2c1Br` [Compound 287, 2-((1S,6S)-6-aminocyclohex-3-en-1-yl)-3-bromo-5-chloro-N-(2-fluorobenzyl)thieno[3,2-b]pyridin-7-amine], the IC50 (in the assay on ATXN3 pre-mRNA; in assay [1]) was 30 to 300 nM throughout.
As for `N[C@@H]1CCCCC[C@@H]1c1sc2c(NCc3cccs3)cc(Cl)nc2c1Cl` [Compound 76, 2-((1S,2R)-2-aminocycloheptyl)-3,5-dichloro-N-(thiophen-2-ylmethyl)thieno[3,2-b]pyridin-7-amine], the IC50 (in the assay on ATXN3 pre-mRNA; in assay [1]) was over 1000 nM each time.
In the case of “6-((2S,3S)-3-aminotetrahydro-2H-pyran-2-yl)-N-benzyl-2,7-dichloro-5-(difluoromethyl)-5H-pyrrolo[3,2-d]pyrimidin-4-amine and 6-((2R,3R)-3-aminotetrahydro-2H-pyran-2-yl)-N-benzyl-2,7-dichloro-5-(difluoromethyl)-5H-pyrrolo[3,2-d]pyrimidin-4-amine [Compound 392]”, the IC50 fell in the range of 30 to 300 nM in the assay on ATXN3 pre-mRNA and 300 to 1000 nM in assay [1].
With `N[C@H]1CC=CC[C@@H]1c1c(I)c2nc(Cl)nc(NCc3ccccc3)c2n1C(F)F` [Compound 348, 6-((1S,6S)-6-aminocyclohex-3-en-1-yl)-N-benzyl-2-chloro-5-(difluoromethyl)-7-iodo-5H-pyrrolo[3,2-d]pyrimidin-4-amine], the IC50 (in the assay with ATXN3 pre-mRNA; in assay [1]) was 30 to 300 nM each time.
On to `N[C@@H]1COCC[C@H]1c1sc2c(NCc3ccccc3)cc(Cl)nc2c1Br.N[C@H]1COCC[C@@H]1c1sc2c(NCc3ccccc3)cc(Cl)nc2c1Br` (mixture of isomers) [Compound 328, 2-((3R,4S)-3-aminotetrahydro-2H-pyran-4-yl)-N-benzyl-3-bromo-5-chlorothieno[3,2-b]pyridin-7-amine and 2-((3S,4R)-3-aminotetrahydro-2H-pyran-4-yl)-N-benzyl-3-bromo-5-chlorothieno[3,2-b]pyridin-7-amine], for which the half-inhibitory concentration (IC50) (with ATXN3 pre-mRNA; in assay [1]) was 30 to 300 nM in each case.
On to “6-((2R,3R)-3-aminotetrahydro-2H-pyran-2-yl)-2-chloro-N-(furan-2-ylmethyl)-7-iodothieno[3,2-d]pyrimidin-4-amine and 6-((2S,3S)-3-aminotetrahydro-2H-pyran-2-yl)-2-chloro-N-(furan-2-ylmethyl)-7-iodothieno[3,2-d]pyrimidin-4-amine [Compound 243]”, for which the IC50 (in the assay on ATXN3 pre-mRNA; in assay [1]) was at most 30 nM in each case.
`N[C@H]1CC=CC[C@@H]1c1sc2c(NCc3ccsc3)cc(Cl)nc2c1Br` [Compound 217, 2-((1S,6S)-6-aminocyclohex-3-en-1-yl)-3-bromo-5-chloro-N-(thiophen-3-ylmethyl)thieno[3,2-b]pyridin-7-amine]: the IC50 (with ATXN3 pre-mRNA; in assay [1]) was at most 30 nM in each case.
As for `N[C@H]1CCC[C@@H]1c1cc2nc(Cl)cc(NCc3cccs3)c2s1` [Compound 10, 2-((1S,2S)-2-aminocyclopentyl)-5-chloro-N-(thiophen-2-ylmethyl)thieno[3,2-b]pyridin-7-amine], the IC50 (with ATXN3 pre-mRNA; in assay [1]) was 300 to 1000 nM throughout.
In the case of “3-bromo-5-chloro-2-[(2R,3S)-3-aminotetrahydropyran-2-yl]-N-(2-thienylmethyl)thieno[3,2-b]pyridin-7-amine and 3-bromo-5-chloro-2-[(2S,3R)-3-aminotetrahydropyran-2-yl]-N-(2-thienylmethyl)thieno[3,2-b]pyridin-7-amine [Compound 20]”, the IC50 (with ATXN3 pre-mRNA; in assay [1]) was 30 to 300 nM in each case.
`N[C@@H]1CC=CC[C@H]1c1sc2c(NCc3ccncc3F)cc(Cl)nc2c1Cl` [Compound 376, 2-((1R,6R)-6-aminocyclohex-3-en-1-yl)-3,5-dichloro-N-((3-fluoropyridin-4-yl)methyl)thieno[3,2-b]pyridin-7-amine]: the IC50 (in the assay on ATXN3 pre-mRNA; in assay [1]) was 30 to 300 nM in each case.
Take `CN(Cc1ccco1)c1cc(Cl)nc2c(C#CCCCO)c([C@H]3CC=CC[C@@H]3N)sc12` [Compound 336, 5-(2-((1S,6S)-6-aminocyclohex-3-en-1-yl)-5-chloro-7-((furan-2-ylmethyl)(methyl)amino)thieno[3,2-b]pyridin-3-yl)pent-4-yn-1-ol]: the IC50 (in the assay on ATXN3 pre-mRNA; in assay [1]) was 30 to 300 nM in each case.
Consider `Cc1c([C@@]2(F)CCCC[C@@H]2N)sc2c(NCc3ccco3)cc(Cl)nc12` [Compound 41, 2-((1R,2S)-2-amino-1-fluorocyclohexyl)-5-chloro-N-(furan-2-ylmethyl)-3-methylthieno[3,2-b]pyridin-7-amine], for which the IC50 (in the assay on ATXN3 pre-mRNA; in assay [1]) was 30 to 300 nM each time.
As to “2-((1R,2S,6R)-2-amino-6-fluorocyclohexyl)-3-bromo-5-chloro-N-(thiophen-2-ylmethyl)thieno[3,2-b]pyridin-7-amine and 2-((1S,2R,6S)-2-amino-6-fluorocyclohexyl)-3-bromo-5-chloro-N-(thiophen-2-ylmethyl)thieno[3,2-b]pyridin-7-amine [Compound 181]”, the IC50 (with ATXN3 pre-mRNA; in assay [1]) was at most 30 nM throughout.
In the case of `Cc1c([C@H]2CC=CC[C@@H]2N)sc2c(NCc3ccccc3F)cc(Cl)nc12` [Compound 341, 2-((1S,6S)-6-aminocyclohex-3-en-1-yl)-5-chloro-N-(2-fluorobenzyl)-3-methylthieno[3,2-b]pyridin-7-amine], the IC50 (in the assay with ATXN3 pre-mRNA; in assay [1]) was 30 to 300 nM each time.
Take `N[C@@H]1CCCCC[C@H]1c1cc2nc(Cl)cc(NCc3cccs3)c2s1` [Compound 80, 2-((1R,2R)-2-aminocycloheptyl)-5-chloro-N-(thiophen-2-ylmethyl)thieno[3,2-b]pyridin-7-amine]: the IC50 (with ATXN3 pre-mRNA; in assay [1]) was over 1000 nM throughout.
Regarding `N[C@H]1CCC[C@]1(F)c1sc2c(NCc3ccco3)cc(Cl)nc2c1Cl` [Compound 121, 2-((1R,2S)-2-amino-1-fluorocyclopentyl)-3,5-dichloro-N-(furan-2-ylmethyl)thieno[3,2-b]pyridin-7-amine], the IC50 (with ATXN3 pre-mRNA; in assay [1]) was over 1000 nM throughout.
On to `N[C@H]1COCC[C@@H]1c1sc2c(NCc3nccs3)cc(Cl)nc2c1I` [Compound 265, 2-((3R,4S)-3-aminotetrahydro-2H-pyran-4-yl)-5-chloro-3-iodo-N-(thiazol-2-ylmethyl)thieno[3,2-b]pyridin-7-amine], for which the IC50 in the assay on ATXN3 pre-mRNA is at most 30 nM; in assay [1], 30 to 300 nM.
On to `Cc1c([C@@H]2CC=CC[C@H]2N)sc2c(NCc3ccsc3)cc(Cl)nc12` [Compound 419, 2-((1R,6R)-6-aminocyclohex-3-en-1-yl)-5-chloro-3-methyl-N-(thiophen-3-ylmethyl)thieno[3,2-b]pyridin-7-amine], for which the IC50 (with ATXN3 pre-mRNA; in assay [1]) was 30 to 300 nM throughout.
On to `CC#CCNc1cc(Cl)nc2c(Br)c([C@H]3CCOC[C@@H]3N)sc12` [Compound 398, 2-((3R,4S)-3-aminotetrahydro-2H-pyran-4-yl)-3-bromo-N-(but-2-yn-1-yl)-5-chlorothieno[3,2-b]pyridin-7-amine], for which the half-maximal inhibitory concentration (IC50) was 30 to 300 nM in the assay on ATXN3 pre-mRNA and 300 to 1000 nM in assay [1].
“2-((2R,3R)-3-aminotetrahydro-2H-pyran-2-yl)-5-chloro-3-iodo-N-(thiophen-2-ylmethyl)thieno[3,2-b]pyridin-7-amine and 2-((2S,3S)-3-aminotetrahydro-2H-pyran-2-yl)-5-chloro-3-iodo-N-(thiophen-2-ylmethyl)thieno[3,2-b]pyridin-7-amine [Compound 266]”: the IC50 (in the assay on ATXN3 pre-mRNA; in assay [1]) was 30 to 300 nM in each case.
As for `CC#CCNc1cc(Cl)nc2c(I)c([C@H]3CC=CC[C@@H]3N)sc12` [Compound 202, 2-((1S,6S)-6-aminocyclohex-3-en-1-yl)-N-(but-2-yn-1-yl)-5-chloro-3-iodothieno[3,2-b]pyridin-7-amine], the IC50 (in the assay with ATXN3 pre-mRNA; in assay [1]) was at most 30 nM in each case.
